# Laboratory results taken from patent publication US20130196971A1, “FATTY ACID SYNTHASE INHIBITORS” (priority 2010, published 2013).
# pIC50: −log10 of the molar value.
# Target: FAS (Homo sapiens, UniProt P49327)
# Test: FAS Assay (Assay #1 residual NADPH detection or Assay #2 CoA detection with CPM dye)
# Assay type: biochemical
# Conditions: FAS inhibition, measured through Assay #1 or Assay #2; one experiment or average of multiple experiments
# Procedure: FAS activity was measured through one of the two following assays.
# Inhibition of FAS activity can be measured based on the detection of residual NADPH substrate after the FAS assay is quenched. This assay is run as a 10 μL endpoint assay in 384-well format, where the reaction contains 20 μM malonyl-CoA, 2 μM acetyl-CoA, 30 μM NADPH and 40 nM FAS in 50 mM sodium phosphate, pH 7.0. The assay is run by sequentially dispensing 5 μl of a malonyl-CoA solution, then enzyme solution (containing the acetyl-CoA, and NADPH) into a black, low volume assay plate (Greiner 784076) pre-dispensed with 100 nL compound solutions in DMSO. The reaction is incubated at ambient temperature for 60 minutes, then quenched with 5 μL of a developing solution composed of 90 μM resazurin, 0.3 IU/ml diaphorase in 50 mM sodium phosphate, pH 7.0. The developed reaction is read on a Molecular Devices Analyst or Acquest (or equivalent) plate reader using a 530 nm excitation wavelength filter, a 580 nm emission filter, and 561 nm dichroic filter. The test compounds are prepared in neat DMSO at a concentration of 10 mM. For inhibition curves, compounds are diluted using a three fold serial dilution and tested at 11 concentrations (e.g. 25 μM-0.42 nM). Curves are analysed using ActivityBase and XLfit, and results are expressed as pIC50 values.
# Inhibition of FAS can also be quantified based on the detection of the CoA products with a thio-reactive coumarin dye. This assay is run as a 10 μL endpoint assay in 384-well format, where the reaction contains 20 μM malonyl-CoA, 20 μM acetyl-CoA, 40 μM NADPH and 2 nM FAS in 50 mM sodium phosphate, pH 7.0, and 0.04% Tween-20. The assay is run by adding 5 μL enzyme solution to a black, low volume assay plate (Greiner 784076) pre-dispensed with 100 nl compound solutions in DMSO. After 30 minutes, 5 μL substrate is added, and the reaction incubated at ambient temperature for an additional 60 minutes. The reaction is then quenched with 10 μL of 6M guanidine-HCl containing 50 μM CPM (7-diethylamino-3-(4′-maleimidylphenyl)-4-methylcoumarin (CPM; thio-reactive dye), and incubated for 30 minutes. The plate is read on an Envision (PerkinElmer) or equivalent plate reader using a 380 nm excitation wavelength filter, and a 486 nm emission filter. Data fitting and compound preparations are done as described above.
# Sequence of FAS (P49327 whole entry): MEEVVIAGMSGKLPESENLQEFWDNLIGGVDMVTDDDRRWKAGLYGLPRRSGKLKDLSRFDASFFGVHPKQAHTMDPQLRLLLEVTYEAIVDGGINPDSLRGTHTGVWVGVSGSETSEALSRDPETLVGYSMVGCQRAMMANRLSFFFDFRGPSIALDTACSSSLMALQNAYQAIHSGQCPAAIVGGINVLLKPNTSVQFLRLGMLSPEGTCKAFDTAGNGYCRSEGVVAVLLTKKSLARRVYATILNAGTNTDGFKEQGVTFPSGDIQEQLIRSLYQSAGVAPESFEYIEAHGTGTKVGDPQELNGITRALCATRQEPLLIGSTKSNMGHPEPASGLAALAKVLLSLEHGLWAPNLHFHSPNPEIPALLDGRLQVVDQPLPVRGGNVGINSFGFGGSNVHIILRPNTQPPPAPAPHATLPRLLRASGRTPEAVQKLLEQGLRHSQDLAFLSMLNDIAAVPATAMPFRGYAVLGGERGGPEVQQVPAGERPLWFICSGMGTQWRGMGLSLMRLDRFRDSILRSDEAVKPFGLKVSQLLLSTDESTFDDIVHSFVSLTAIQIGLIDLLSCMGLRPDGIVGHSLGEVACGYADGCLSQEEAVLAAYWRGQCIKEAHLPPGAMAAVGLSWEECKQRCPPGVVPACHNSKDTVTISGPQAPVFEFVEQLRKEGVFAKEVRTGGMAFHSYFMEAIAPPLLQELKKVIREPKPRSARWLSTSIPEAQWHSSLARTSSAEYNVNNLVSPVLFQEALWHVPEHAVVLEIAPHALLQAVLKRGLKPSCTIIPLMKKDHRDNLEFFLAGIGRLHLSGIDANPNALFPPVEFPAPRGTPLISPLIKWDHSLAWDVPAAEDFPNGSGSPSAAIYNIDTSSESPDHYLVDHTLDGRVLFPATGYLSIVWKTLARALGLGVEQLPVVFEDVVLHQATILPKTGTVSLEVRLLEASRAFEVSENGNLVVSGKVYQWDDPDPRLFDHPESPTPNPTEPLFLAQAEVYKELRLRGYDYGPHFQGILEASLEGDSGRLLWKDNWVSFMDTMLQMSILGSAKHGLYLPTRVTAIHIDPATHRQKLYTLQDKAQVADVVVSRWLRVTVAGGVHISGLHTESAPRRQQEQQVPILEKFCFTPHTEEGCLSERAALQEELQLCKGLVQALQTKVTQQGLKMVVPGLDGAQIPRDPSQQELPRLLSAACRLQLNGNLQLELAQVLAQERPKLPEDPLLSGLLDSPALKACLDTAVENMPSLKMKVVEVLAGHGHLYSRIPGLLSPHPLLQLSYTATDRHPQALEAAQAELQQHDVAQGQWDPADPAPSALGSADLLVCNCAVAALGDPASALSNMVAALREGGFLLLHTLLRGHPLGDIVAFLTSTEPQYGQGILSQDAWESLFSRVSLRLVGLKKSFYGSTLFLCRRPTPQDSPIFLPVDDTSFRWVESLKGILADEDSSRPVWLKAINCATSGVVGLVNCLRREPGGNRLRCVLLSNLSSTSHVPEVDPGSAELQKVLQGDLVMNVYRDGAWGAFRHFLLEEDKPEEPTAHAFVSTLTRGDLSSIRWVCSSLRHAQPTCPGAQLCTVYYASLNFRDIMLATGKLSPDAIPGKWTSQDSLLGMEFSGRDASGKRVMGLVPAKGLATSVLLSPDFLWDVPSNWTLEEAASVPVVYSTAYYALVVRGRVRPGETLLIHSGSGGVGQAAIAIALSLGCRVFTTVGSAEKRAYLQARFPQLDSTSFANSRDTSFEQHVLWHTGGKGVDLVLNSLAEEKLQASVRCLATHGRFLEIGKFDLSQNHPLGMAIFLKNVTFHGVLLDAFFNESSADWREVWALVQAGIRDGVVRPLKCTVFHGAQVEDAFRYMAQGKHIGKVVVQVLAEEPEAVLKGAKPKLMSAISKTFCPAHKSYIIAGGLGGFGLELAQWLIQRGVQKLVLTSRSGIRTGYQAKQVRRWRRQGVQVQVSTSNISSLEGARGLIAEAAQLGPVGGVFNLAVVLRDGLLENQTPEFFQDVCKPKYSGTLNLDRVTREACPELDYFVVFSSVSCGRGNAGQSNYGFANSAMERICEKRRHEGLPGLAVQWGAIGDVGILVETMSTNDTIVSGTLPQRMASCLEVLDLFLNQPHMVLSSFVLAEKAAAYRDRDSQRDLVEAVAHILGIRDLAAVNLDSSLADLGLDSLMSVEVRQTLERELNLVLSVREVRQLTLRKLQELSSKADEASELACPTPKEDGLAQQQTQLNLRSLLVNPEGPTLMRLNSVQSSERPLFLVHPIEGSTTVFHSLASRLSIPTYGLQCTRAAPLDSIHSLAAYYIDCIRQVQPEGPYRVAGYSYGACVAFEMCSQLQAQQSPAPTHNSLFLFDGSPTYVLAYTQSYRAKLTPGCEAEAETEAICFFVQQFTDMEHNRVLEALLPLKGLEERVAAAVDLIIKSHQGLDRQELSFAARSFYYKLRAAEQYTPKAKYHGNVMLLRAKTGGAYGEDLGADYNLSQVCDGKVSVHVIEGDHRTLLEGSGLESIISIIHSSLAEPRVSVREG
row,SMILES,pIC50
1,"COc1ccc(-c2ccc(-c3nnnn3C[C@@H]3CCN(C(=O)C4CC4)C3)cc2)c(Cl)c1 [Example 5, 5-[2′-chloro-4′-(methyloxy)-4-biphenylyl]-1-{[(3R)-1-(cyclopropylcarbonyl)-3-pyrrolidinyl]methyl}-1H-tetrazole]",6.12
2,"O=C(C1CC1)N1CC[C@@H](Cn2nncc2-c2ccc(-c3ccc4[nH]ncc4c3)cc2)C1 [Example 11, 5-[4-(1-{[(3R)-1-(cyclopropylcarbonyl)-3-pyrrolidinyl]methyl}-1H-1,2,3-triazol-5-yl)phenyl]-1H-indazole]",7.40
3,"Cc1nnc(-c2ccc(-c3ccc(Cl)cc3Cl)cc2)n1C[C@@H]1CCN(C(=O)C2CC2)C1 [Example 15, 4-{[(3S)-1-(cyclopropylcarbonyl)-3-pyrrolidinyl]methyl}-3-(2′,4′-dichloro-4-biphenylyl)-5-methyl-4H-1,2,4-triazole]",6.22
4,"O=C(C1CC1)N1CC[C@@H](Cn2ccnc2-c2ccc(-c3ccccc3)cc2)C1 [Example 26, 2-(4-biphenylyl)-1-{[(3S)-1-(cyclopropylcarbonyl)-3-pyrrolidinyl]methyl}-1H-imidazole]",6.72
5,"O=C(C1CC1)N1CC[C@@H](Cn2ccnc2-c2ccc(-c3ccc4occc4c3)cc2)C1 [Example 34, 2-[4-(1-benzofuran-5-yl)phenyl]-1-{[(3S)-1-(cyclopropylcarbonyl)-3-pyrrolidinyl]methyl}-1H-imidazole]",7.64
6,"Cc1nc(-c2ccc(-c3ccc(F)cc3)cc2)n(CC2CCN(C(=O)C3CC3)C2)c1C (stereo not drawn) [Example 41, 1-{[1-(cyclopropylcarbonyl)-3-pyrrolidinyl]methyl}-2-(4′-fluoro-4-biphenylyl)-4,5-dimethyl-1H-imidazole]",5.82
7,"Cc1cnc(-c2ccc(-c3ccc(Cl)cc3Cl)cc2)n1CC1CCN(C(=O)C2CC2)C1 (stereo not drawn) [Example 54, 1-{[1-(cyclopropylcarbonyl)-3-pyrrolidinyl]methyl}-2-(2′,4′-dichloro-4-biphenylyl)-5-methyl-1H-imidazole]",6.22
8,"O=C(C1CC1)N1CC[C@@H](Cn2cnnc2-c2ccc(-c3cccc4[nH]ncc34)cc2)C1 [Example 67, 4-[4-(4-{[(3S)-1-(cyclopropylcarbonyl)-3-pyrrolidinyl]methyl}-4H-1,2,4-triazol-3-yl)phenyl]-1H-indazole]",7.89

# More lines, now with the values ahead:
row,pIC50,SMILES
1,6.60,"Cn1ccc2cc(-c3ccc(-c4nncn4C[C@@H]4CCN(C(=O)C5CC5)C4)cc3)cnc21 [Example 73, 5-[4-(4-{[(3S)-1-(cyclopropylcarbonyl)-3-pyrrolidinyl]methyl}-4H-1,2,4-triazol-3-yl)phenyl]-1-methyl-1H-pyrrolo[2,3-b]pyridine]"
2,7.20,"O=C(C1CC1)N1CC[C@@H](Cn2cnnc2-c2ccc(-c3cccc(-c4cc[nH]n4)c3)cc2F)C1 [Example 87, 4-{[(3S)-1-(cyclopropylcarbonyl)-3-pyrrolidinyl]methyl}-3-[3-fluoro-3′-(1H-pyrazol-5-yl)-4-biphenylyl]-4H-1,2,4-triazole]"
3,6.20,"O=C(C1CC1)N1CC(Cn2cnnc2-c2ccc(-c3ccc4ncccc4c3)cc2F)C1 [Example 96, 6-[4-(4-{[1-(cyclopropylcarbonyl)-3-azetidinyl]methyl}-4H-1,2,4-triazol-3-yl)-3-fluorophenyl]quinoline]"
4,6.70,"COc1cc(-c2ccc(-c3nncn3C[C@@H]3CCN(C(=O)C4CC4)C3)c(F)c2)ccc1C [Example 98, 4-{[(3S)-1-(cyclopropylcarbonyl)-3-pyrrolidinyl]methyl}-3-[3-fluoro-4′-methyl-3′-(methyloxy)-4-biphenylyl]-4H-1,2,4-triazole]"
